# Source: patent US10543215B2, “Combination therapy of cardiac myosin activator and sinus node if current inhibitor” (AMGEN INC., priority 2015, dated 2020)
# Values joined by “and” are separate entries in the source; they are usually repeats but may differ in a detail not shown here. Equal entries are not always repeated.
# System: conscious telemetered beagle dogs
# Test: Left-ventricular hemodynamic, mechanical and timing indices by radio-telemetry before and during IV OM or vehicle, on repeated oral IVA or placebo
# Assay type: in vivo, beagle dog
# Protocol: Healthy male beagle dogs (n=7) instrumented with radio-telemetry units providing continuous single-lead electrocardiogram (ECG), as well as systemic (arterial, AoP) and left-ventricular (LVP) pressure signals were used for this study. Following sling acclimation, the animals were assigned to receive repeated oral (via gavage) treatments with either Ivabradine (IVA, 5 mg/kg bid) or a volume-matched placebo-control (sterile water, CTRL) for 5 days, administered at a dose volume of 10 mL/kg, in a cross over design.
# The animals were sling-restrained and were subjected to acute intravenous administration of either sterile water (VEH, on Days 4 and 11 of dosing) or Omecamtiv Mecarbil (OM, on Days 5 and 12 of dosing). OM treatments were performed over a 3-hour infusion duration, following a dose-escalation design targeting plasma concentrations of 600 and 1000 ng/mL (each over 90 minutes, with a 30 minute loading infusion followed by a 60 minute maintenance infusion) for a cumulative dose of 5.293 mg/kg (as shown in Table A below). The IV vehicle treatments were time- and volume-matched.
# Telemetered data were collected continuously for at least 90 minutes prior to and during dosing, as well as for at least 20 hours post-dose. The LVP and ECG signals were digitized at a sampling rate of at least 1000 Hz. The data were analyzed for heart rate (HR) and left-ventricular hemodynamic/mechanical indices that were obtained from the pressure waveform, including mean systolic (MSP) and end-diastolic (filling, EDP) pressures, the peak rates of pressure change during systole/diastole (dP/dtmax/min), as well as the time-constant of relaxation (tau) and a contractility index (CI: dP/dtmax normalized by the pressure at dP/dtmax). The data were also analyzed for systolic and diastolic intervals, including the estimated durations of the systolic ejection (SET), contraction (CT), active relaxation (RT) and filling intervals (FT), as well as the systolic-to-diastolic interval ratio (S/D: SET/RT+FT), which were derived from the left-ventricular pressure waveform.
# The left-ventricular indices were evaluated only in the sling-restrained animals before and during IV treatment with OM or vehicle. Cardiovascular responses at each dose level were monitored for up to 90 minutes, i.e., over 3 hours total (during IV dosing of VEH and OM on Days 4, 5, 11, and 12 in the dose administration paradigm). Overall, in-sling cardiovascular data are reported at the following pre-determined/targeted time points: prior to dosing (i.e., at baseline, PRE) and approximately at the end of each infusion period (i.e., up to 4 time points during dosing, D1 to D4). Signals were analyzed continuously in 5-minute epochs, with pre-administration (i.e., PRE) values representing the overall mean over at least 5-epochs (i.e., 25 minutes) taken immediately prior to the onset of dosing, while during-dosing values reflect 5-minute averages (i.e., 1 epoch) taken prior to the (estimated) termination of each infusion. Data are presented as both means with standard deviations in summarizing tables/figure; beat-to-beat plots against heart rate are part of the study file.
# [1] = D1, end of 30-min loading infusion, target OM 600 ng/mL
# [2] = D2, end of 60-min maintenance infusion, target OM 600 ng/mL
# [3] = D3, end of 30-min loading infusion, target OM 1000 ng/mL
# [4] = D4, end of 60-min maintenance infusion, target OM 1000 ng/mL
# [5] = PRE, before IV dosing (baseline)
compound,measurement,setting,value
"COC(=O)N1CCN(Cc2cccc(NC(=O)Nc3ccc(C)nc3)c2F)CC1 [OM, methyl 4-(2-fluoro-3-(3-(6-methylpyridin-3-yl)ureido)benzyl)piperazine-1-carboxylate]",CT % vs. PRE,[1],−3%
same,CT (contraction time),[1],65.9 ms
same,EDP % vs. PRE,[1],−24%
same,EDP (left-ventricular end-diastolic pressure),[1],9.8 mmHg
same,FT % vs. PRE,[1],23%
same,FT (filling time),[1],425 ms
same,HR % vs. PRE,[1],−14%
same,HR (heart rate),[1],86 bpm
same,MSP % vs. PRE,[1],−2%
same,MSP (left-ventricular mean systolic pressure),[1],127 mmHg
same,RT % vs. PRE,[1],13%
same,RT (relaxation time),[1],104 ms
same,S/D % vs. PRE,[1],18%
same,"S/D (systolic to diastolic ratio, SET/RT + FT)",[1],0.41
same,SET % vs. PRE,[1],33%
same,SET (systolic ejection time),[1],207 ms
same,Tau % vs. PRE,[1],19 ± 3%
same,Tau (left-ventricular relaxation time-constant),[1],36.7 ± 3.6 ms
same,Vmax % vs. PRE,[1],3 ± 1%
same,Vmax (estimated maximal velocity of myocardial contractile-element shortening),[1],36.0 ± 1.7 s⁻¹
same,dP/dtmax % vs. PRE,[1],−6%
same,dP/dtmax (peak rate of LV pressure change during systole),[1],"2,243 mmHg/s"
same,dP/dtmin % vs. PRE,[1],−12%
same,dP/dtmin (peak rate of LV pressure change during diastole),[1],"−1,910 mmHg/s"
same,CT % vs. PRE,[2],−2%
same,CT (contraction time),[2],66.7 ms
same,EDP % vs. PRE,[2],−33%
same,EDP (left-ventricular end-diastolic pressure),[2],8.5 mmHg
same,FT % vs. PRE,[2],2%
same,FT (filling time),[2],321 ms
same,HR % vs. PRE,[2],0%
same,HR (heart rate),[2],99 bpm
same,MSP % vs. PRE,[2],0%
same,MSP (left-ventricular mean systolic pressure),[2],130 mmHg
same,RT % vs. PRE,[2],20%
same,RT (relaxation time),[2],110 ms
same,"S/D (systolic to diastolic ratio, SET/RT + FT)",[2],0.5
same,SET (systolic ejection time),[2],214 ms
same,Tau % vs. PRE,[2],33 ± 5%
same,Tau (left-ventricular relaxation time-constant),[2],41.1 ± 4.7 ms
same,Vmax % vs. PRE,[2],7 ± 2%
same,Vmax (estimated maximal velocity of myocardial contractile-element shortening),[2],37.2 ± 1.6 s⁻¹
same,dP/dtmax % vs. PRE,[2],−1±4% and −1%
same,dP/dtmax (peak rate of LV pressure change during systole),[2],"2,356 mmHg/s"
same,dP/dtmin % vs. PRE,[2],−19%
same,dP/dtmin (peak rate of LV pressure change during diastole),[2],"−1,759 mmHg/s"
same,CT % vs. PRE,[3],−1%
same,CT (contraction time),[3],67.0 ms
same,EDP % vs. PRE,[3],−13%
same,EDP (left-ventricular end-diastolic pressure),[3],10.8 mmHg
same,FT % vs. PRE,[3],−27%
same,FT (filling time),[3],251 ms
same,HR % vs. PRE,[3],11%
same,HR (heart rate),[3],112 bpm
same,MSP % vs. PRE,[3],0%
same,MSP (left-ventricular mean systolic pressure),[3],130 mmHg
same,RT % vs. PRE,[3],24%
same,RT (relaxation time),[3],114 ms
same,S/D % vs. PRE,[3],73%
same,"S/D (systolic to diastolic ratio, SET/RT + FT)",[3],0.60
same,SET % vs. PRE,[3],34%
same,SET (systolic ejection time),[3],208 ms
same,Tau % vs. PRE,[3],53 ± 7%
same,Tau (left-ventricular relaxation time-constant),[3],47.6 ± 6.5 ms
same,Vmax % vs. PRE,[3],2 ± 2%
same,Vmax (estimated maximal velocity of myocardial contractile-element shortening),[3],35.6 ± 2.0 s⁻¹
same,dP/dtmax % vs. PRE,[3],−3%
same,dP/dtmax (peak rate of LV pressure change during systole),[3],"2,319 mmHg/s"
same,dP/dtmin % vs. PRE,[3],−26%
same,dP/dtmin (peak rate of LV pressure change during diastole),[3],"−1,608 mmHg/s"
same,CT % vs. PRE,[4],5%
same,CT (contraction time),[4],71.0 ms
same,EDP % vs. PRE,[4],46%
same,EDP (left-ventricular end-diastolic pressure),[4],17.8 mmHg
same,FT % vs. PRE,[4],−71%
same,FT (filling time),[4],85 ms
same,HR (heart rate),[4],162 bpm
same,MSP % vs. PRE,[4],−15%
same,MSP (left-ventricular mean systolic pressure),[4],111 mmHg
same,RT % vs. PRE,[4],1%
same,RT (relaxation time),[4],93 ms
same,"S/D (systolic to diastolic ratio, SET/RT + FT)",[4],1.06
same,SET % vs. PRE,[4],5%
same,SET (systolic ejection time),[4],162 ms
same,Tau (left-ventricular relaxation time-constant),[4],54.7 ± 9.7 ms
same,Vmax % vs. PRE,[4],−19±8%
same,Vmax (estimated maximal velocity of myocardial contractile-element shortening),[4],28.4 ± 3.4 s⁻¹
same,dP/dtmax % vs. PRE,[4],−23%
same,dP/dtmax (peak rate of LV pressure change during systole),[4],"1,844 mmHg/s"
same,dP/dtmin % vs. PRE,[4],−41%
same,dP/dtmin (peak rate of LV pressure change during diastole),[4],"−1,288 mmHg/s"
same,CT (contraction time),[5],67.9 ± 0.7 ms
same,EDP (left-ventricular end-diastolic pressure),[5],12.3 mmHg
same,FT (filling time),[5],370 ± 50 ms
same,HR (heart rate),[5],102 bpm
same,MSP (left-ventricular mean systolic pressure),[5],131 mmHg
same,RT (relaxation time),[5],92 ± 3 ms
same,"S/D (systolic to diastolic ratio, SET/RT + FT)",[5],0.36
same,SET (systolic ejection time),[5],156 ± 7 ms
same,Tau (left-ventricular relaxation time-constant),[5],30.8 ± 2.8 ms
same,Vmax (estimated maximal velocity of myocardial contractile-element shortening),[5],34.9 ± 1.6 s⁻¹
same,dP/dtmax (peak rate of LV pressure change during systole),[5],"2,401 mmHg/s"
same,dP/dtmin (peak rate of LV pressure change during diastole),[5],"−2,167 mmHg/s"
